According to BigSolDB 2.1:

CCc1cccc2c3c([nH]c12)C(CC)(CC(=O)O)OCC3 (stereo unspecified)
solubility (mole fraction)
Settings | 278.15 K | 283.15 K | 288.15 K | 293.15 K | 298.15 K | 303.15 K | 308.15 K | 313.15 K | 318.15 K | 323.15 K
in acetone | 0.0935 | 0.101 | 0.109 | 0.117 | 0.127 | 0.136 | 0.147 | 0.157 | 0.168 | 0.178
in dichloromethane | 0.00979 | 0.0124 | 0.0155 | 0.019 | 0.0229 | 0.0271 | – | – | – | –
in isobutanol | 0.0224 | 0.0265 | 0.0316 | 0.0382 | 0.0476 | 0.0594 | 0.0707 | 0.086 | 0.104 | 0.123
in isobutyl acetate | 0.0428 | 0.0475 | 0.0529 | 0.0584 | 0.0649 | 0.07 | 0.0774 | 0.0861 | 0.0959 | 0.108
in isopentyl acetate | 0.0413 | 0.0457 | 0.0509 | 0.0563 | 0.0629 | 0.068 | 0.0758 | 0.084 | 0.0944 | 0.105
in isopropanol | 0.0267 | 0.0307 | 0.0363 | 0.0444 | 0.0547 | 0.0669 | 0.078 | 0.0907 | 0.109 | 0.127
in methyl acetate | 0.0464 | 0.0519 | 0.0578 | 0.0638 | 0.0687 | 0.0769 | 0.0834 | 0.0921 | 0.101 | 0.111
in n-butanol | 0.0371 | 0.0422 | 0.0485 | 0.0573 | 0.0675 | 0.078 | 0.0873 | 0.0994 | 0.117 | 0.135
in n-butyl acetate | 0.0455 | 0.0507 | 0.0563 | 0.0627 | 0.0682 | 0.0748 | 0.0825 | 0.0915 | 0.101 | 0.111
in n-pentyl acetate | 0.0453 | 0.0503 | 0.0558 | 0.0621 | 0.0666 | 0.0738 | 0.0803 | 0.0892 | 0.0983 | 0.108
in n-propanol | 0.0342 | 0.0391 | 0.0452 | 0.0548 | 0.0648 | 0.0751 | 0.0849 | 0.0969 | 0.114 | 0.131
in toluene | 0.00117 | 0.00147 | 0.0019 | 0.0024 | 0.00316 | 0.00394 | 0.00501 | 0.0065 | 0.00838 | 0.0108
